Assay results: PMC6274026 (Molecules, 2016)
Where “and” joins values, the source holds several entries; their conditions need not be identical. Equal entries are not always repeated.

What was measured:
MCF-7 [1] = tested on: MCF-7
MDA-MB-231 [2] = tested on: MDA-MB-231
BT-549 [3] = tested on: BT-549
MCF-10A [4] = tested on: MCF-10A
Lewis lung carcinoma = tested on: Lewis lung carcinoma; design: method as in ref 31 = [31]; 31. NCBI, National Center for Biotechnology Information PubChem BioAssay Database 2007 AID=192, 256 and 270 Available online: https://pubchem.ncbi.nlm.nih.gov/bioassay/192, 256, and 270 (accessed on 3); conditions: subcutaneous inoculation, in words; cited from earlier work
in vitro = conditions: human, Cytotoxic activity IC50, MCF-10A, 72 h, mean of three independent experiments ± S.D.
MCF-7 [5] = assay: Clonogenicity (recovery) assay, 72 h post-treatment, SRB
MDA-MB-231 [6] = assay: as above; conditions: MDA-MB-231, 10, 2, and 0.4 µg/mL, in words
BT-549 [7] = assay: as above; conditions: BT-549, 10, 2, and 0.4 µg/mL, in words
MCF-10A [8] = assay: as above; conditions: MCF-10A, the four tested concentrations, in words

## COc1ccc([C@@H]2c3cc4c(cc3C[C@H]3COC(=O)[C@@H]32)OCO4)cc1OC [Compound 3, 5′-demethoxydeoxypodophyllotoxin]
MCF-7 [1]; IC50 MCF-10A / IC50 MCF-7
  Selectivity index: 2.33
MCF-7 [1]; MCF-7, 0.08 µg/mL, 72 h
  percentage of survival: 55% ± 9.9%
MCF-7 [1]; MCF-7, relative to POD
  Potency compared to control POD: 0.449
MCF-7 [1]; MCF-7, relative to VP-16
  Potency compared to control VP-16: 3.124
MCF-7 [1]; read-out: Cytotoxic activity IC50, MCF-7, 72 h, mean of three independent experiments ± S.D.
  IC50: 40 ± 11 nM
MDA-MB-231 [2]; IC50 MCF-10A / IC50 MDA-MB-231
  Selectivity index: 0.64
MDA-MB-231 [2]; MDA-MB-231, relative to POD
  Potency compared to control POD: 0.168
MDA-MB-231 [2]; MDA-MB-231, relative to VP-16
  Potency compared to control VP-16: 0.268
MDA-MB-231 [2]; read-out: Cytotoxic activity IC50, MDA-MB-231, 72 h, mean of three independent experiments ± S.D.
  IC50: 145 ± 45 nM
BT-549 [3]; BT-549, relative to POD
  Potency compared to control POD: 0.252
BT-549 [3]; BT-549, relative to VP-16
  Potency compared to control VP-16: 7.6 and 7.661
BT-549 [3]; BT-549 vs MCF-10A, in words
  selectivity according to the selectivity criteria (SI ≥ 10 selective): non-selective compound
BT-549 [3]; read-out: Cytotoxic activity IC50, BT-549, 72 h, mean of three independent experiments ± S.D.
  IC50: 21 ± 3 nM
MCF-10A [4]; read-out: Cytotoxic activity IC50, 72 h, mean of three independent experiments ± S.D.
  IC50: 92 ± 9 nM
MCF-10A [4]; relative to POD
  Potency compared to control POD: 0.214
MCF-10A [4]; relative to VP-16
  Potency compared to control VP-16: 0.507
Lewis lung carcinoma
  biological activity in Lewis lung carcinoma model: did not show biological activities
In vitro
  IC50 at 72 h: 90 ± 9 nM
MCF-7 [5]; MCF-7, 0.08 µg/mL, 72 h post-treatment
  percentage of recovery: 111% ± 13%
MCF-7 [5]; MCF-7, 10, 2, and 0.4 µg/mL, in words
  effect on proliferation and recovery after treatment: cytotoxicity with a lack of recovery
MDA-MB-231 [6]
  effect on proliferation and recovery after treatment: cytotoxicity with a lack of recovery
BT-549 [7]
  effect on proliferation and recovery after treatment: cytotoxicity with a lack of recovery
MCF-10A [8]
  effect on proliferation in the cytotoxicity and clonogenicity assays: completely inhibited proliferation
